Assay results: US12091425B2 (AMGEN INC., priority 2016, dated 2024)

Key:
[1] = biological target: T1, Mcl-1/Bim interaction, recombinant human Mcl-1 (171-327) (Homo sapiens, UniProt Q07820); test: Cell free Mcl-1: Bim Affinity Assay (Mcl-1 HTRF); assay type: binding; details: cell free Mcl-1:Bim TR-FRET, recombinant human Mcl-1 (171-327)
T1 construct: made in house
In short: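 Displacement of biotinylated Bim 51-76 peptide is followed by TR-FRET. Incubation runs overnight. Duplicate points are fitted with a four-parameter sigmoid to yield IC50.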

[2] = test system: OPM-2 human multiple myeloma cell line; test: Cell Viability Assay (OPM-2 10 FBS); assay type: cell-based; details: Homo sapiens, OPM-2, 16 h, OPM-2 cells, 16 h, CellTiter-Glo
In short: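 OPM-2 myeloma cells, 3000/well in medium with 10% FBS, exposed to serially diluted compounds for 16 h at 37° C./5% CO2. Viability read by CellTiter-Glo luminescence; IC50 from 4-parameter logistic fit.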

T1 sequence (Q07820 171-327): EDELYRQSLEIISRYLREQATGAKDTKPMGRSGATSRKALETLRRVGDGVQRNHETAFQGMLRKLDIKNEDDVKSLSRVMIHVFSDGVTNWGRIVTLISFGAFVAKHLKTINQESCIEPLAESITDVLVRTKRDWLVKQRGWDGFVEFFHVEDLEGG

SMILES | IC50 [1] [nM] | IC50 [2] [nM]
O=C1NS(=O)(=O)N(Cc2ncco2)CC/C=C/[C@H](O)[C@@H]2CC[C@H]2CN2C[C@@]3(CCCc4cc(Cl)ccc43)COc3ccc1cc32 [Example 694, (1S,3′R,6′R,7′S,8′E)-6-chloro-7′-hydroxy-12′-(1,3-oxazol-2-ylmethyl)-3,4-dihydro-2H,15′H-spiro[naphthalene-1,22′-[20]oxa[13]thia[1,12,14]triazatetracyclo[14.7.2.0^3,6.0^19,24]pentacosa[8,16,18,24]tetraen]-15′-one 13′,13′-dioxide] | 0.763 | 968
CC[C@@H]1CC/C=C/[C@H](OC)[C@@H]2CC[C@H]2CN2C[C@@]3(CCCc4cc(Cl)ccc43)COc3cc(F)c(cc32)C(=O)NS1(=O)=O [Example 701, (1S,3′R,6′R,7′S,8′E,12′R)-6-chloro-12′-ethyl-17′-fluoro-7′-methoxy-3,4-dihydro-2H,15′H-spiro[naphthalene-1,22′-[20]oxa[13]thia[1,14]diazatetracyclo[14.7.2.0^3,6.0^19,24]pentacosa [8,16,18,24]tetraen]-15′-one 13′,13′-dioxide] | 1.44 | 2020
COCCO[C@H]1/C=C/C[C@H](C)[C@@H](C)S(=O)(=O)NC(=O)c2ccc3c(c2)N(C[C@@H]2CC[C@H]21)C[C@@]1(CCCc2cc(Cl)ccc21)CO3 [Example 719, (1S,3′R,6′R,7′S,8′E,11′S,12′R)-6-chloro-7′-(2-methoxyethoxy)-11′,12′-dimethyl-3,4-dihydro-2H,15′H-spiro[naphthalene-1,22′-[20]oxa[13]thia[1,14]diazatetracyclo[14.7.2.0^3,6.0^19,24]pentacosa[8,16,18,24]tetraen]-15′-one-13′, 13′-dioxide] | 0.366 | 117
C[C@@H]1[C@@H](C)C/C=C/[C@H](OCCN2CCOCC2)[C@@H]2CC[C@H]2CN2C[C@@]3(CCCc4cc(Cl)ccc43)COc3ccc(cc32)C(=O)NS1(=O)=O [Example 720, (1S,3′R,6′R,7′S,8′E,11′S,12′R)-6-chloro-11′,12′-dimethyl-7′-(2-(4-morpholinyl)ethoxy)-3,4-dihydro-2H,15′H-spiro[naphthalene-1,22′-[20]oxa[13]thia[1,14]diazatetracyclo[14.7.2.0^3,6.0^19,24]pentacosa [8,16,18,24]tetraen]-15′-one-13′, 13′-dioxide] | 0.327 | 54.2
C[C@@H]1[C@@H](C)C/C=C/[C@H](OCCCN2CCOCC2)[C@@H]2CC[C@H]2CN2C[C@@]3(CCCc4cc(Cl)ccc43)COc3ccc(cc32)C(=O)NS1(=O)=O [Example 721, (1S,3′R,6′R,7′S,8′E,11′S,12′R)-6-chloro-11′,12′-dimethyl-7′-(3-(4-morpholinyl)propoxy)-3,4-dihydro-2H,15′H-spiro[naphthalene-1,22′-[20]oxa[13]thia[1,14]diazatetracyclo[14.7.2.0^3,6.0^19,24]pentacosa [8,16,18,24]tetraen]-15′-one-13′, 13′-dioxide] | 0.539 | 73.5
C[C@@H]1[C@@H](C)C/C=C/[C@H](OCCC2CCOCC2)[C@@H]2CC[C@H]2CN2C[C@@]3(CCCc4cc(Cl)ccc43)COc3ccc(cc32)C(=O)NS1(=O)=O [Example 722, (1S,3′R,6′R,7′S,8′E,11′S,12′R)-6-chloro-11′,12′-dimethyl-7′-(2-(tetrahydro-2H-pyran-4-yl)ethoxy)-3,4-dihydro-2H,15′H-spiro [naphthalene-1,22′-[20]oxa[13]thia[1,14]diazatetracyclo [14.7.2.0^3,6.0^19,24]pentacosa[8,16,18,24]tetraen]-15′-one-13′, 13′-dioxide] | 11.9 | 473
C[C@@H]1[C@@H](C)C/C=C/[C@H](OCCN2CCCCC2)[C@@H]2CC[C@H]2CN2C[C@@]3(CCCc4cc(Cl)ccc43)COc3ccc(cc32)C(=O)NS1(=O)=O [Example 723, (1S,3′R,6′R,7′S,8′E,11′5,12′R)-6-chloro-11′,12′-dimethyl-7′-(2-(1-piperidinyl)ethoxy)-3,4-dihydro-2H,15′H-spiro[naphthalene-1,22′-[20]oxa[13]thia[1,14]diazatetracyclo[14.7.2.0^3,6.0^19,24]pentacosa [8,16,18,24]tetraen]-15′-one-13′, 13′-dioxide] | 0.485 | 138
C[C@@H]1[C@@H](C)C/C=C\[C@H](OCCN2CCOCC2)[C@@H]2CC[C@H]2CN2C[C@@]3(CCCc4cc(Cl)ccc43)COc3ccc(cc32)C(=O)NS1(=O)=O [Example 724, (1S,3′R,6′R,7′S,8′Z,11′S,12′R)-6-chloro-11′,12′-dimethyl-7′-(2-(4-morpholinyl)ethoxy)-3,4-dihydro-2H,15′H-spiro[naphthalene-1,22′-[20]oxa[13]thia[1,14]diazatetracyclo[14.7.2.0^3,6.0^19,24]pentacosa [8,16,18,24]tetraen]-15′-one 13′,13′-dioxide] | 0.485 | 420
Cc1ccc(S(=O)(=O)NCCO[C@H]2/C=C/C[C@H](C)[C@@H](C)S(=O)(=O)NC(=O)c3ccc4c(c3)N(C[C@@H]3CC[C@H]32)C[C@@]2(CCCc3cc(Cl)ccc32)CO4)cc1 [Example 726, N-(2-(((1S,3′R,6′R,7′S,8′E,11′S,12′R)-6-chloro-11′,12′-dimethyl-13′, 13′-dioxido-15′-oxo-3,4-dihydro-2H-spiro[naphthalene-1,22′-[20]oxa[13]thia[1,14]diazatetracyclo[14.7.2.0^3,6.0^19,24]pentacosa[8,16,18,24]tetraene]-7′-yl)oxy)ethyl)4-methylbenzenesulfonamide] | 12.2 | 2140
C[C@@H]1[C@@H](C)C/C=C/[C@H](OCCN2CCOCC2=O)[C@@H]2CC[C@H]2CN2C[C@@]3(CCCc4cc(Cl)ccc43)COc3ccc(cc32)C(=O)NS1(=O)=O [Example 727, (1S,3′R,6′R,7′S,8′E,11′S,12′R)-6-chloro-11′,12′-dimethyl-7′-(2-(3-oxo-4-morpholinyl)ethoxy)-3,4-dihydro-2H,15′H-spiro[naphthalene-1,22′-[20]oxa[13]thia[1,14]diazatetracyclo[14.7.2.0^3,6.0^19,24]pentacosa [8,16,18,24]tetraen]-15′-one-13′, 13′-dioxide] | 0.365 | 147
C[C@@H]1[C@@H](C)C/C=C/[C@H](OCCN2CCCCC2=O)[C@@H]2CC[C@H]2CN2C[C@@]3(CCCc4cc(Cl)ccc43)COc3ccc(cc32)C(=O)NS1(=O)=O [Example 728, (1S,3′R,6′R,7′S,8′E,11′S,12′R)-6-chloro-11′,12′-dimethyl-7′-(2-(2-oxo-1-piperidinyl)ethoxy)-3,4-dihydro-2H,15′H-spiro[naphthalene-1,22′-[20]oxa[13]thia[1,14]diazatetracyclo[14.7.2.0^3,6.0^19,24]pentacosa [8,16,18,24]tetraen]-15′-one-13′, 13′-dioxide] | 0.437 | 268
C[C@@H]1[C@@H](C)C/C=C/[C@H](OCCN2CCOC2=O)[C@@H]2CC[C@H]2CN2C[C@@]3(CCCc4cc(Cl)ccc43)COc3ccc(cc32)C(=O)NS1(=O)=O [Example 729, (1S,3′R,6′R,7′S,8′E,11′S,12′R)-6-chloro-11′,12′-dimethyl-7′-(2-(2-oxo-1,3-oxazolidin-3-yl)ethoxy)-3,4-dihydro-2H,15′H-spiro[naphthalene-1,22′-[20]oxa[13]thia[1,14]diazatetracyclo[14.7.2.0^3,6.0^19,24]pentacosa [8,16,18,24]tetraen]-15′-one-13′, 13′-dioxide] | 0.311 | 118
C[C@@H]1[C@@H](C)C/C=C/[C@H](OCCN2CCCC2=O)[C@@H]2CC[C@H]2CN2C[C@@]3(CCCc4cc(Cl)ccc43)COc3ccc(cc32)C(=O)NS1(=O)=O [Example 730, (1S,3′R,6′R,7′S,8′E,11′5,12′R)-6-chloro-11′,12′-dimethyl-7′-(2-(2-oxo-1-pyrrolidinyl)ethoxy)-3,4-dihydro-2H,15′H-spiro[naphthalene-1,22′-[20]oxa[13]thia[1,14]diazatetracyclo[14.7.2.0^3,6.0^19,24]pentacosa [8,16,18,24]tetraen]-15′-one-13′, 13′-dioxide] | 0.307 | 157
C[C@@H]1[C@@H](C)C/C=C/[C@H](OCCN2CCC2=O)[C@@H]2CC[C@H]2CN2C[C@@]3(CCCc4cc(Cl)ccc43)COc3ccc(cc32)C(=O)NS1(=O)=O [Example 731, (1S,3′R,6′R,7′S,8′E,11′S,12′R)-6-chloro-11′,12′-dimethyl-7′-(2-(2-oxo-1-azetedinyl)ethoxy)-3,4-dihydro-2H,15′H-spiro[naphthalene-1,22′-[20]oxa[13]thia[1,14]diazatetracyclo[14.7.2.0^3,6.0^19,24]pentacosa [8,16,18,24]tetraen]-15′-one-13′, 13′-dioxide] | 0.301 | 117
CC(=O)NCCO[C@H]1/C=C/C[C@H](C)[C@@H](C)S(=O)(=O)NC(=O)c2ccc3c(c2)N(C[C@@H]2CC[C@H]21)C[C@@]1(CCCc2cc(Cl)ccc21)CO3 [Example 732, N-(2-(((1S,3′R,6′R,7′S,8′E,11′S,12′R)-6-chloro-11,12′-dimethyl-13′, 13′-dioxido-15′-oxo-3,4-dihydro-2H-spiro[naphthalene-1,22′-[20]oxa[13]thia[1,14]diazatetracyclo[14.7.2.0^3,6.0^19,24]pentacosa[8,16,18,24]tetraen]-7′-yl)oxy)ethyl)acetamide] | 0.244 | 170
CC(=O)N1CCN(CCO[C@H]2/C=C/C[C@H](C)[C@@H](C)S(=O)(=O)NC(=O)c3ccc4c(c3)N(C[C@@H]3CC[C@H]32)C[C@@]2(CCCc3cc(Cl)ccc32)CO4)CC1 [Example 733, (1S,3′R,6′R,7′S,8′E,11′S,12′R)-7′-(2-(4-acetyl-1-piperazinyl)ethoxy)-6-chloro-11′,12′-dimethyl-3,4-dihydro-2H,15′H-spiro[naphthalene-1,22′-[20]oxa[13]thia[1,14]diazatetracyclo [14.7.2.0^3,6.0^19,24]pentacosa[8,16,18,24]tetraen]-15′-one-13′, 13′-dioxide] | 0.284 | 69.7
